Values quoted from earlier work, collected in patent publication US20130324521A1, “IMPLANT FOR TREATING OR PREVENTING AN ANEURYSM” (priority 2010, published 2013).

For `Cn1cncc1[C@@](N)(c1ccc(Cl)cc1)c1ccc2c(c1)c(-c1cccc(Cl)c1)cc(=O)n2C` [R11577, Tipifarnib], the “tolerability of oral administration” value (oral administration) is given as “tolerated well” and the toxicity (use as accredited therapeutic agent in oncological therapy) is given as “low toxicity”.
